Measurements as given in patent US20110212913A1, “THERAPEUTIC COMPOSITIONS COMPRISING PHENOLIC ACIDS FOR TREATING CONDITIONS RELATED TO INAPPROPRIATE PLATELET AGGREGATION” (PROVEXIS NATURAL PRODUCTS LIMITED, priority 2008, published 2011).
≈ marks a conversion by molar mass, not a printed value.

Legend:
Type in all cases: cell-based, human
[1] = system: platelet aggregation in platelet-rich plasma, agonist ADP; experiment: ADP-induced platelet aggregation in platelet-rich plasma (aggregometer); conditions: ADP 10 μmol/L; for IC50: Homo sapiens, Platelet
Description: (§1) The experimental protocol described below was devised to determine the IC50 values of compounds isolated as described in 1.1.3. Crude bioassays to evaluate inhibition of platelet aggregation in vitro were performed on some crude extracts (data not shown) to help select fine fractions/compounds identified by HPLC for functional activity. This approach was considered necessary to avoid the need to assay each and ever compound (the would be thousands) in the fruit extracts.
(§2) An IC50 value represents the amount of a compound, in mg, required to inhibit by 50% the platelet aggregation induced under standardised conditions in 1 mL platelet-rich plasma, in comparison with control samples.
(§3) Blood for in vitro studies was collected from drug-free, healthy human volunteers, both male and female, aged 18-60 years, with normal platelet function. Subjects declared that they had not consumed drugs or supplements known to affect platelet function for a minimum of 10 days before providing a blood sample. Blood was collected after single venepuncture to an antecubital vein through siliconized needles into plastic citrated blood collection tubes (Sarstedt Monovettes, final concentration sodium citrate, 13 mmol/L). All blood was maintained at 37° C. from the time of blood sampling.
(§4) Platelet-rich plasma (PRP) was obtained by centrifugation of citrated blood for 15 minutes at 200×g, and was adjusted with platelet-poor plasma to a standard platelet number of 320±20×10^9/L prior to use. PRP was used for platelet function measurements within two hours.
(§5) The following agonists were used for platelet function measurements. Adenosine diphosphate (ADP), final concentration 10 μmol/L; collagen, final concentration 5 mg/L; arachidonic acid, final concentration […] (all from Helena Biosciences, Sunderland, UK); thrombin receptor-activating peptide (TRAP), final concentration […] (Sigma-Aldrich, Poole, UK). Agonists were prepared from stock solutions immediately before use, diluting into warmed physiological saline (0.9% NaCI).
(§6) Individual platelet inhibitors were prepared at a concentration of between 500 g/L and 100 g/L in either physiological saline, ultra-pure methanol or ultra-pure DMSO (Sigma-Aldrich, Poole, UK) and stored frozen until required. Stock solutions were then diluted with physiological saline immediately prior to use.
(§7) 450 μL PRP was incubated with 50 μL diluted inhibitor solution at 37° C. for 10 minutes, in low-retention epindorrfs. Inhibitor solutions were diluted such that the final concentration of methanol or DMSO in the PRP sample never exceeded 2%. Suitable control samples, containing 50 μL physiological saline matched for methanol or DMSO content as appropriate, were incubated simultaneously. For each inhibitor compound, 5 incubation concentrations were used; final concentrations of 0.05 mg/mL, 0.10 mg/mL, 1.00 mg/mL, 5.00 mg/mL and 10 mg/mL were used as standard.
(§8) After incubation with platelet inhibitors, PRP samples were transferred to glass cuvettes and the extent of aggregation induced by either ADP, collagen, TRAP or arachidonic acid was monitored over 10 minutes on a platelet aggregometer (PACKS 4, Helena Biosciences, Sunderland, UK). A control sample was run with each sample set. From the aggregation curves generated, the area under the curve was calculated for each PRP sample, and the inhibition of aggregation achieved at each inhibitor concentration was calculated by comparing the area under the curve for these PRP samples with that of the control sample. The inhibition of aggregation was expressed as % inhibition, compared to control, and from the 6 data points obtained per inhibitor compound, a dose-response curve was constructed. This curve was then used to predict the IC50 value for that inhibitor compound, as shown in 1.2, Results, and FIG. 1.
(§9) For each blood sample obtained, 6-point dose-response curves for 2 different inhibitory compounds could be generated. […]

[2] = system: platelet aggregation in platelet-rich plasma, agonist collagen; experiment: Collagen-induced platelet aggregation in platelet-rich plasma (aggregometer); conditions: collagen 5 mg/L; for IC50: Homo sapiens, Platelet
Description: as §1, §2, §3, §4, §5, §6, §7, §8, §9

[3] = system: platelet aggregation in platelet-rich plasma, agonist thrombin receptor-activating peptide (TRAP); experiment: TRAP-induced platelet aggregation in platelet-rich plasma (aggregometer); conditions: TRAP 25 nmol/L; for IC50: Homo sapiens, Platelet
Description: as §1, §2, §3, §4, §5, §6, §7, §8, §9

[4] = system: platelet aggregation in platelet-rich plasma, agonist arachidonic acid; experiment: Arachidonic acid-induced platelet aggregation in platelet-rich plasma (aggregometer); conditions: arachidonic acid 500 U/L; for IC50: Homo sapiens, Platelet
Description: as §1, §2, §3, §4, §5, §6, §7, §8, §9

[5] = Table 3, mg needed for 50% inhibition in 1 mL PRP, compounds isolated from tomato extract
[6] = Table 4, compounds from sources other than tomatoes, mg per 1 mL PRP

Compound | IC50 [1, 6] [mg/mL] | IC50 [2, 6] [mg/mL] | IC50 [3, 6] [mg/mL] | IC50 [4, 6] [mg/mL] | other results
O=c1c(O)c(-c2ccc(O)cc2)oc2cc(O)cc(O)c12 [Compound 31, Kaempferol] | – | – | – | – | IC50 [1, 5]: > 50 mg/mL; IC50 [2, 5]: > 50 mg/mL
O=c1ccn([C@@H]2O[C@H](CO)[C@@H](O)[C@H]2O)c(=O)[nH]1 [Compound 3, Uridine] | – | – | – | – | IC50 [3, 5]: > 50 mg/mL
O=C(O)C=Cc1ccccc1 [Compound 22, Cinnamic acid] | 26.1 (≈ 176 mM) | 8.76 (≈ 59.1 mM) | 18.2 (≈ 123 mM) | 16.1 (≈ 109 mM) | IC50 [4, 5]: 0.22 mg/mL (≈ 1.48 mM)
Nc1nc2c(ncn2[C@@H]2O[C@H](COP(=O)(O)O)[C@@H](O)[C@H]2O)c(=O)[nH]1 [Guanosine 5′-monophosphate] | 0.1 (≈ 0.275 mM) | 0.31 (≈ 0.853 mM) | 20.1 (≈ 55.4 mM) | 0.36 (≈ 0.991 mM) | –
C[C@@H]1O[C@@H](Oc2c(-c3ccc(O)c(O)c3)oc3cc(O)cc(O)c3c2=O)[C@H](O)[C@H](O)[C@H]1O [Quercitrin] | > 50 | > 50 | 16 (≈ 35.6 mM) | 12 (≈ 26.8 mM) | –
O=C(O)c1cc(O)c(O)c(O)c1 [Gallic acid] | 20.2 (≈ 119 mM) | 14.4 (≈ 84.5 mM) | 18.9 (≈ 111 mM) | 14.4 (≈ 84.9 mM) | –
C[C@@H]1O[C@@H](OC[C@H]2O[C@@H](Oc3c(-c4ccc(O)c(O)c4)oc4cc(O)cc(O)c4c3=O)[C@H](O)[C@@H](O)[C@@H]2O)[C@H](O)[C@H](O)[C@H]1O [Compound 27, Rutin] | – | – | – | – | IC50 [4, 5]: 0.41 mg/mL (≈ 0.672 mM)
COc1cc(C(=O)O)cc(OC)c1O [Syringic acid] | 37.2 (≈ 188 mM) | 30.8 (≈ 155 mM) | 28.3 (≈ 143 mM) | 22.5 (≈ 113 mM) | –
O=C1C[C@@H](c2ccc(O)cc2)Oc2cc(O)cc(O)c21 [Compound 32, Naringenin] | – | – | – | – | IC50 [1, 5]: > 50 mg/mL; IC50 [2, 5]: > 50 mg/mL
COc1cc(/C=C/C(=O)O)cc(OC)c1O [Sinapic acid] | 26.1 (≈ 116 mM) | 24.9 (≈ 111 mM) | 30.4 (≈ 135 mM) | 24.8 (≈ 110 mM) | –
Naringin [Compound 26] | – | – | – | – | IC50 ADP [1, 5]: 28.1 mg; IC50 Collagen [2, 5]: 29.55 mg; IC50 TRAP [3, 5]: 9.13 mg; IC50 AA [4, 5]: 0.31 mg
O=c1c(O)c(-c2cc(O)c(O)c(O)c2)oc2cc(O)cc(O)c12 [Myricetin] | 22.1 (≈ 69.6 mM) | 24.6 (≈ 77.3 mM) | 12.9 (≈ 40.6 mM) | 0.22 (≈ 0.691 mM) | –
O=C(/C=C/c1ccc(O)c(O)c1)O[C@@H]1C[C@](O)(C(=O)O)C[C@@H](O)[C@H]1O [Compound 14, Chlorogenic acid] | – | – | – | – | IC50 [1, 5]: 10.1 mg/mL (≈ 28.4 mM); IC50 [2, 5]: 10.1 mg/mL (≈ 28.5 mM); IC50 [3, 5]: 1.1 mg/mL (≈ 3.1 mM); IC50 [4, 5]: 0.77 mg/mL (≈ 2.17 mM)
O=C(O)c1ccc(O)c(O)c1 [Protocatechuic acid] | 30.2 (≈ 196 mM) | 23.7 (≈ 154 mM) | 30.8 (≈ 200 mM) | 25.6 (≈ 166 mM) | –
O=C(O)c1ccccc1 [Compound 20, Benzoic acid] | – | – | – | – | IC50 [1, 5]: 25.1 mg/mL (≈ 206 mM); IC50 [2, 5]: 17.7 mg/mL (≈ 145 mM); IC50 [3, 5]: 18.2 mg/mL (≈ 149 mM); IC50 [4, 5]: 15.5 mg/mL (≈ 127 mM)
OC[C@H]1O[C@@H](n2cnc3c(O)ncnc32)[C@H](O)[C@@H]1O [Inosine] | 3.5 (≈ 13 mM) | 9.3 (≈ 34.7 mM) | > 50 | – | –
Quercetin-3-O-glycoside [Compound 23] | – | – | – | – | IC50 ADP [1, 5]: 25.18 mg; IC50 Collagen [2, 5]: 28.43 mg; IC50 TRAP [3, 5]: 12.06 mg; IC50 AA [4, 5]: 0.19 mg
O=c1c(O)c(-c2ccc(O)c(O)c2)oc2cc(O)cc(O)c12 [Compound 30, Quercetin] | – | – | – | – | IC50 [1, 5]: > 50 mg/mL; IC50 [2, 5]: > 50 mg/mL
Nc1nc2c(ncn2[C@@H]2O[C@H](CO)[C@@H](O)[C@H]2O)c(=O)[nH]1 [Compound 4, Guanosine] | – | – | – | – | IC50 [1, 5]: 0.25 mg/mL (≈ 0.883 mM); IC50 [2, 5]: 0.53 mg/mL (≈ 1.87 mM); IC50 [4, 5]: 0.91 mg/mL (≈ 3.21 mM)
Nc1ncnc2c1ncn2[C@@H]1O[C@H](CO)[C@@H](OP(=O)(O)O)[C@H]1O [Compound 5, Adenosine 3′-monophospate] | – | – | – | – | IC50 ADP [1, 5]: 0.12 mg; IC50 Collagen [2, 5]: 0.28 mg; IC50 TRAP [3, 5]: 24.51 mg; IC50 AA [4, 5]: 2.41 mg
O=c1cc(-c2ccc(O)c(O)c2)oc2cc(O)cc(O)c12 [Luteolin] | > 50 | > 50 | 26.2 (≈ 91.5 mM) | 5.18 (≈ 18.1 mM) | –
O=C(O)/C=C/c1ccccc1O [o-Coumaric acid] | 32.2 (≈ 196 mM) | 28.9 (≈ 176 mM) | 17.4 (≈ 106 mM) | 9.48 (≈ 57.7 mM) | –
Nc1ncnc2c1ncn2[C@@H]1O[C@H](COP(=O)(O)O)[C@@H](O)[C@H]1O [Compound 6, Adenosine 5′-monophospate] | – | – | – | – | IC50 ADP [1, 5]: 0.12 mg; IC50 Collagen [2, 5]: 0.28 mg; IC50 TRAP [3, 5]: 24.51 mg; IC50 AA [4, 5]: 2.41 mg
Nc1ncnc2c1ncn2[C@@H]1O[C@H](CO)[C@@H](O)[C@H]1O [Compound 2, Adenosine] | – | – | – | – | IC50 [1, 5]: 0.4 mg/mL (≈ 1.5 mM); IC50 [2, 5]: 0.82 mg/mL (≈ 3.07 mM); IC50 [3, 5]: > 50 mg/mL
